Source: PubChem BioAssay AID1963982 (Molecular Pharmacology Branch, DTP, NCI, 2024)

Tested on: 313798-341-R-J2-PDC spheroids, viability
Assay: Anticancer human tumor 313798-341-R-J2-PDC patient-derived cervical squamous cell carcinoma cell line growth inhibition [PI3K]
Conditions: spheroids with HUVEC and MSC; for IC50: curve of first compound; for viability, T/C: stronger effect = lower value
In short: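 We assembled tumor spheroids that included a stromal compartment of HUVEC and MSCs, then exposed them to targeted agents alone and together with PI3K pathway inhibitors. Concentration series descended by half-log from clinically achievable Cmax levels. Viability served as the endpoint.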

[1] = second compound 0.00316 µM, first compound 0.0316 µM
[2] = second compound 0.00316 µM, first compound 0.1 µM
[3] = second compound 0.00316 µM, first compound 0.316 µM
[4] = second compound 0.00316 µM, first compound 1 µM
[5] = second compound 0.00316 µM, first compound 3.16 µM
[6] = second compound 0.00316 µM, first compound 10 µM
[7] = second compound 0.01 µM, first compound 0.0316 µM
[8] = second compound 0.01 µM, first compound 0.1 µM
[9] = second compound 0.01 µM, first compound 0.316 µM
[10] = second compound 0.01 µM, first compound 1 µM
[11] = second compound 0.01 µM, first compound 3.16 µM
[12] = second compound 0.01 µM, first compound 10 µM
[13] = second compound 0.0316 µM, first compound 0.0316 µM
[14] = second compound 0.0316 µM, first compound 0.1 µM
[15] = second compound 0.0316 µM, first compound 0.316 µM
[16] = second compound 0.0316 µM, first compound 1 µM
[17] = second compound 0.0316 µM, first compound 3.16 µM
[18] = second compound 0.0316 µM, first compound 10 µM
[19] = second compound 0.1 µM, first compound 0.0316 µM
[20] = second compound 0.1 µM, first compound 0.1 µM
[21] = second compound 0.1 µM, first compound 0.316 µM
[22] = second compound 0.1 µM, first compound 1 µM
[23] = second compound 0.1 µM, first compound 3.16 µM
[24] = second compound 0.1 µM, first compound 10 µM
[25] = second compound 0.316 µM, first compound 0.0316 µM
[26] = second compound 0.316 µM, first compound 0.1 µM
[27] = second compound 0.316 µM, first compound 0.316 µM
[28] = second compound 0.316 µM, first compound 1 µM
[29] = second compound 0.316 µM, first compound 3.16 µM
[30] = second compound 0.316 µM, first compound 10 µM
[31] = second compound 1 µM, first compound 0.0316 µM
[32] = second compound 1 µM, first compound 0.1 µM
[33] = second compound 1 µM, first compound 0.316 µM
[34] = second compound 1 µM, first compound 1 µM
[35] = second compound 1 µM, first compound 3.16 µM
[36] = second compound 1 µM, first compound 10 µM
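Also: spheroids exposed to compounds for seven days.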
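For viability, T/C in this document: 100% = DMSO vehicle control viability.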

SMILES: CC(Cn1ccc(-c2ccc(C#N)c(Cl)c2)n1)NC(=O)c1cc(C(C)O)[nH]n1 (stereo unspecified) + CC(Nc1ccc2c(c1)OCCn1cc(N3C(=O)OCC3C(F)F)nc1-2)C(N)=O
- IC50 (second compound 0.00316 µM): > 10000 nM
- IC50 (second compound 0.01 µM): > 10000 nM
- IC50 (second compound 0.0316 µM): > 10000 nM
- IC50 (second compound 0.1 µM): > 10000 nM
- IC50 (second compound 0.316 µM): > 10000 nM
- IC50 (second compound 1 µM): 4500 nM
- viability, T/C [1]: 102%
- viability, T/C [2]: 107%
- viability, T/C [3]: 98.3%
- viability, T/C [4]: 101%
- viability, T/C [5]: 105%
- viability, T/C [6]: 99.8%
- viability, T/C [7]: 106%
- viability, T/C [8]: 103%
- viability, T/C [9]: 109%
- viability, T/C [10]: 103%
- viability, T/C [11]: 100%
- viability, T/C [12]: 89.1%
- viability, T/C [13]: 122%
- viability, T/C [14]: 111%
- viability, T/C [15]: 106%
- viability, T/C [16]: 113%
- viability, T/C [17]: 96.7%
- viability, T/C [18]: 97.2%
- viability, T/C [19]: 109%
- viability, T/C [20]: 107%
- viability, T/C [21]: 102%
- viability, T/C [22]: 117%
- viability, T/C [23]: 99.1%
- viability, T/C [24]: 82.3%
- viability, T/C [25]: 86.7%
- viability, T/C [26]: 86.3%
- viability, T/C [27]: 78.8%
- viability, T/C [28]: 84.5%
- viability, T/C [29]: 79.9%
- viability, T/C [30]: 60.8%
- viability, T/C [31]: 64.8%
- viability, T/C [32]: 55.5%
- viability, T/C [33]: 63.7%
- viability, T/C [34]: 58.6%
- viability, T/C [35]: 54.2%
- viability, T/C [36]: 40.5%

SMILES: CC1(C)CCC(Nc2ncc(C(F)(F)F)c(-c3c[nH]c4c(P(C)(C)=O)c(C#N)ccc34)n2)CN1 (stereo unspecified) + COc1c(OCCCN2CCOCC2)ccc2c3n(c(=NC(=O)c4cnc(N)nc4)nc12)CCN3
- IC50 (second compound 0.00316 µM): < 31.6 nM
- IC50 (second compound 0.01 µM): < 31.6 nM
- IC50 (second compound 0.0316 µM): < 31.6 nM
- IC50 (second compound 0.1 µM): < 31.6 nM
- IC50 (second compound 0.316 µM): < 31.6 nM
- IC50 (second compound 1 µM): < 31.6 nM
- viability, T/C [1]: 44.6%
- viability, T/C [2]: 42.3%
- viability, T/C [3]: 39.7%
- viability, T/C [4]: 43.9%
- viability, T/C [5]: 45.4%
- viability, T/C [6]: 33.7%
- viability, T/C [7]: 39.6%
- viability, T/C [8]: 34.7%
- viability, T/C [9]: 36.8%
- viability, T/C [10]: 38.1%
- viability, T/C [11]: 43.1%
- viability, T/C [12]: 29.1%
- viability, T/C [13]: 27.4%
- viability, T/C [14]: 27.9%
- viability, T/C [15]: 27.4%
- viability, T/C [16]: 27.9%
- viability, T/C [17]: 26.5%
- viability, T/C [18]: 16.5%
- viability, T/C [19]: 18.9%
- viability, T/C [20]: 21.1%
- viability, T/C [21]: 20%
- viability, T/C [22]: 20.2%
- viability, T/C [23]: 21.5%
- viability, T/C [24]: 3.93%
- viability, T/C [25]: 12.2%
- viability, T/C [26]: 11.7%
- viability, T/C [27]: 12.2%
- viability, T/C [28]: 12%
- viability, T/C [29]: 8.87%
- viability, T/C [30]: 1.12%
- viability, T/C [31]: 9.94%
- viability, T/C [32]: 9.34%
- viability, T/C [33]: 7.8%
- viability, T/C [34]: 7.89%
- viability, T/C [35]: 5.87%
- viability, T/C [36]: 1.15%

SMILES: Cn1cnc2c(F)c(Nc3ccc(Br)cc3Cl)c(C(=O)NOCCO)cc21 + COc1c(OCCCN2CCOCC2)ccc2c3n(c(=NC(=O)c4cnc(N)nc4)nc12)CCN3
- IC50 (second compound 0.00316 µM): > 3000 nM
- IC50 (second compound 0.01 µM): > 3000 nM
- IC50 (second compound 0.0316 µM): 2960 nM
- IC50 (second compound 0.1 µM): < 9.49 nM
- IC50 (second compound 0.316 µM): < 9.49 nM
- IC50 (second compound 1 µM): < 9.49 nM
- viability, T/C (second compound 0.00316 µM, first compound 0.00949 µM): 88%
- viability, T/C (second compound 0.00316 µM, first compound 0.03 µM): 93.1%
- viability, T/C (second compound 0.00316 µM, first compound 0.0949 µM): 95.2%
- viability, T/C (second compound 0.00316 µM, first compound 0.3 µM): 87.6%
- viability, T/C (second compound 0.00316 µM, first compound 0.949 µM): 97.3%
- viability, T/C (second compound 0.00316 µM, first compound 3 µM): 75.7%
- viability, T/C (second compound 0.01 µM, first compound 0.00949 µM): 93.1%
- viability, T/C (second compound 0.01 µM, first compound 0.03 µM): 100%
- viability, T/C (second compound 0.01 µM, first compound 0.0949 µM): 97.3%
- viability, T/C (second compound 0.01 µM, first compound 0.3 µM): 101%
- viability, T/C (second compound 0.01 µM, first compound 0.949 µM): 82%
- viability, T/C (second compound 0.01 µM, first compound 3 µM): 70.3%
- viability, T/C (second compound 0.0316 µM, first compound 0.00949 µM): 84.8%
- viability, T/C (second compound 0.0316 µM, first compound 0.03 µM): 75.5%
- viability, T/C (second compound 0.0316 µM, first compound 0.0949 µM): 75%
- viability, T/C (second compound 0.0316 µM, first compound 0.3 µM): 62.5%
- viability, T/C (second compound 0.0316 µM, first compound 0.949 µM): 73.4%
- viability, T/C (second compound 0.0316 µM, first compound 3 µM): 46.8%
- viability, T/C (second compound 0.1 µM, first compound 0.00949 µM): 45.2%
- viability, T/C (second compound 0.1 µM, first compound 0.03 µM): 35.3%
- viability, T/C (second compound 0.1 µM, first compound 0.0949 µM): 32.3%
- viability, T/C (second compound 0.1 µM, first compound 0.3 µM): 31.6%
- viability, T/C (second compound 0.1 µM, first compound 0.949 µM): 26.4%
- viability, T/C (second compound 0.1 µM, first compound 3 µM): 17.1%
- viability, T/C (second compound 0.316 µM, first compound 0.00949 µM): 12.5%
- viability, T/C (second compound 0.316 µM, first compound 0.03 µM): 9.53%
- viability, T/C (second compound 0.316 µM, first compound 0.0949 µM): 5.72%
- viability, T/C (second compound 0.316 µM, first compound 0.3 µM): 4.75%
- viability, T/C (second compound 0.316 µM, first compound 0.949 µM): 3.32%
- viability, T/C (second compound 0.316 µM, first compound 3 µM): 2.54%
- viability, T/C (second compound 1 µM, first compound 0.00949 µM): 10.1%
- viability, T/C (second compound 1 µM, first compound 0.03 µM): 5.21%
- viability, T/C (second compound 1 µM, first compound 0.0949 µM): 3.78%
- viability, T/C (second compound 1 µM, first compound 0.3 µM): 3.94%
- viability, T/C (second compound 1 µM, first compound 0.949 µM): 2.23%
- viability, T/C (second compound 1 µM, first compound 3 µM): 1%
